Laboratory results: PMC7247319, “The mitochondria-targeted peptide SS-31 binds lipid bilayers and modulates surface electrostatics as a key component of its mechanism of action” (The Journal of Biological Chemistry, 2020)
Where a SMILES comes first, the peptide text is derived from it. [ ]: non-standard residue; d: D form. Dmt = Cc1cc(O)cc(C)c1C[C@H](N)C(=O)O

Columns and labels:
[1] = tested on: LUVs with POPC only; experiment: SS-31 binding isotherms by endogenous 2′,6′-Dmt fluorescence; conditions: even at the highest lipid concentrations used
Excerpt: The interaction of basic amphipathic peptides with negatively charged membranes depends on the electric field originating from the bilayer surface as well as specific electrostatic and hydrophobic interactions between the peptide and lipids (Fig. S2). The first objective of this study was to quantitatively evaluate the binding of SS-31 to model membranes with specific lipid composition. For spectroscopic analysis of SS-31 binding, we made use of the endogenous spectral properties of the 2′,6′-dimethyltyrosine (2′,6′-Dmt) side chain at the second position in the peptide. Our initial spectral characterization of SS-31 confirmed the feasibility of using endogenous peptide fluorescence to quantify peptide-membrane interactions (supporting Results A and B and Figs. S3 and S4). We therefore proceeded to measure the binding of SS-31 to large unilamellar vesicles (LUVs) containing anionic lipids in a host background of the zwitterionic lipid 1-palmitoyl-2-oleoyl-sn-glycero-3-phosphocholine (POPC, 16:0/18:1 PC). […]
Figure 2. […] A–C, fluorescence-based measurements. […] Statistical differences within each data set were determined relative to TOCL-containing membranes: •, p < 0.05; ••, p < 0.01. […]

[2] = tested on: LUVs composed of POPC alone or with 20% TOCL, MLCL, or POPG; experiment: Synchrotron SAXS and 31P solid-state NMR of model membranes; conditions: highest peptide concentration, [P]/[L]^eff = 1:5; 2 mM total lipid
Excerpt: Amphipathic molecules such as antimicrobial peptides can induce large structural changes in membranes, including micellization, pore formation, and induction of inverted topologies ([45]). We therefore addressed whether SS-31 induced structural polymorphism within model bilayers using a range of approaches (Fig. 4). […] Similarly, based on ^31P solid-state NMR (ssNMR) measurements, these model membranes yielded line shapes consistent with lamellar bilayers ([47]), and we observed no effect of SS-31 on bilayer structure (Fig. 4B, supporting Results F, and Fig. S10B). […] Thus, these membranes are expected to exist stably in the liquid crystalline lamellar mesophase over all peptide concentrations.
Figure 4. Effects of SS-31 on structural properties of model membranes. […] LUVs composed of 20% anionic lipid (TOCL, MLCL, or POPG) in POPC background were measured in the absence or presence of peptide ([SS-31]/[lipid]^eff = 1:5) as indicated. […] Data and fits in gray show SS-31 fractional saturation (calculated from Fig. 2A, [lipid]^eff = 25 μM). […]
NMR data were recorded at 162 MHz on a Bruker AVANCE III 400-MHz WB spectrometer equipped with an HXY probe tuned for ^1H and ^31P. […] Model membranes (LUVs) were measured at 25 °C (total of 10,240 scans/sample) with a total lipid concentration of 2 mM lipid in the presence of different concentrations of SS-31 (0, 1:500, 1:50, and 1:5 [P]/[L]^eff). […]

## Cc1cc(O)cc(C)c1C[C@H](NC(=O)[C@H](N)CCCNC(=N)N)C(=O)N[C@@H](CCCCN)C(=O)N[C@@H](Cc1ccccc1)C(N)=O [SS-31, D-Arg-2′6′-dimethyl-Tyr-Lys-Phe-NH2] (H-[dR][Dmt]KF-NH2)
[1]
  binding in the absence of anionic lipid: negligible
[2]
  effect on bilayer structure / lamellarity (SAXS, 31P ssNMR): did not cause major topological alterations
